Experimental data reported in ChEMBL document CHEMBL1201862, “PubChem BioAssay data set” (2004).
The source made the active and inactive calls.

Assays:
[1] = target: Mitogen-activated protein kinase 10 (Homo sapiens, UniProt P53779); experiment: Dose response biochemical screening assay for inhibitors of c-Jun N-Terminal Kinase 3 (JNK3). [Related pubchem assays: 746 ]
[2] = inhibitors of Vif binding to APOBEC3G peptide, primary screen, biochemical, TR-FRET, GST-Vif 1-94, biotin-A3G peptide, dose response retest (AID 1117319); format: functional;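 further: TR-FRET signal of purified GST-Vif binding a biotinylated A3G peptide; inhibitors lower the FRET signal by blocking Vif and A3G binding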
Beta-galactosidase = Beta-galactosidase (Escherichia coli, UniProt Q8VNN2); experiment: Dose response counterscreen for EBI2 assay utilizing the enzyme, b-galactosidase.; format: functional
Prothrombin = Prothrombin (Homo sapiens, UniProt P00734); experiment: Thrombin 1536 HTS Dose Response Confirmation. [Related pubchem assays: 1046 (Thrombin 1536 HTS; hits were confirmed in this assay)]; format: functional
[3] = target: Endoplasmic reticulum aminopeptidase 1 (Homo sapiens, UniProt Q9NZ08); experiment: ERAP1 aminopeptidase inhibitors, dose response, biochemical, cherry-pick, set 2, plate reader (AID 743314)
Streptokinase A = target: T1, Streptokinase A (Streptococcus pyogenes serotype M1, UniProt P10520); experiment: S. pyogenes streptokinase expression inhibitors, potency, dose response, plasminogen activation absorbance, OD405 (AID 1914); format: functional, Streptococcus pyogenes M1 GAS;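 further: secreted streptokinase activity via plasminogen activation per viability signal from cell pellet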
T1 sequence (P10520 whole entry): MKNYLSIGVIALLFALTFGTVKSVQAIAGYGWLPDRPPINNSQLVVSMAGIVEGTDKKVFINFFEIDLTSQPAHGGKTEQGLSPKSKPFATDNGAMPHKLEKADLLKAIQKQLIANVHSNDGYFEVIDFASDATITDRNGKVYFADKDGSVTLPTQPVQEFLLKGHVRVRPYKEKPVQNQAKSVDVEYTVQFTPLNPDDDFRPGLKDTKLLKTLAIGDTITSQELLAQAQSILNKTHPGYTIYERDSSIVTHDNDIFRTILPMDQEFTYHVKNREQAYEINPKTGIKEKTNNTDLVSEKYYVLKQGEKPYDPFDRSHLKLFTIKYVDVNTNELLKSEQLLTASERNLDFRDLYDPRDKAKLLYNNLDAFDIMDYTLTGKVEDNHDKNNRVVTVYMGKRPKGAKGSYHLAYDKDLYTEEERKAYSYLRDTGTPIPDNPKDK

[4] = test system: Streptococcus sp. 'group A'; experiment: growth inhibition of control SK(-) GAS strain, dose response, counter-screen for streptokinase expression inhibitor project, luminescence, kanamycin, BacTiterGlo, confirmation (AID 1900); format: functional, organism-based
Streptococcus = experiment: Group A Streptococcus viability loss, dose response, counter-screen for streptokinase expression inhibitor project, luminescence, BacTiterGlo (AID 1915); format: functional, organism-based;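 further: potency for reduction of bacterial viability or growth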
Estrogen receptor beta [5] = target: T2, Estrogen receptor beta (Homo sapiens, UniProt Q92731);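 further: recombinant ER-beta bound to coactivator SRC1 peptide in presence of estradiol agonist; inhibitors block coactivator peptide binding and lower the FRET signal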
Estrogen receptor beta [6] = target: T2, Estrogen receptor beta; experiment: ERβ–SRC-3 coactivator interaction inhibitors, confirmation, orthogonal assay, biochemical, ELISA, streptavidin-HRP readout (AID 1060)
[7] = target: T3, Long-chain-fatty-acid--AMP ligase FadD28 (Mycobacterium tuberculosis, UniProt P9WQ59); experiment: Fluorescence polarization aasay to screen for inhibitors that compete for the binding of FadD28 to a bisubstrate Measured in Biochemical System Using Plate Reader - 2147-01_Inhibitor_Dose_CherryPick_Activity.; format: functional, Mycobacterium tuberculosis H37Rv
T3 sequence (P9WQ59 whole entry): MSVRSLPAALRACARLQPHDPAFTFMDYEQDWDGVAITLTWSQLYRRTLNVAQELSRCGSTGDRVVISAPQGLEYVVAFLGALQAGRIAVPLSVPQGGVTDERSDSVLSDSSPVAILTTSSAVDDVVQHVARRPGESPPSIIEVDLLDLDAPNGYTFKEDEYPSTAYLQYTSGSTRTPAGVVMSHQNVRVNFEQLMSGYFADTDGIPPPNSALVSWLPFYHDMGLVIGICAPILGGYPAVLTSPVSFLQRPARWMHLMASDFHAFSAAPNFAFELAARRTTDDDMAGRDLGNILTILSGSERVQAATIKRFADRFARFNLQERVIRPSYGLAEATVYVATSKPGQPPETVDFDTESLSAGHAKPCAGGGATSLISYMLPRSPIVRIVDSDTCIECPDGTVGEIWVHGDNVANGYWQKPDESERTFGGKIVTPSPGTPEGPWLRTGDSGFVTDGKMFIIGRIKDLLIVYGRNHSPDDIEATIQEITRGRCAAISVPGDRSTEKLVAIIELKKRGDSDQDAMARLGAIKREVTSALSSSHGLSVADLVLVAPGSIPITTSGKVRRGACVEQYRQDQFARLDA

Nonstructural protein 1 = Nonstructural protein 1 (Influenza A virus, UniProt Q194T2); format: functional, Influenza A virus (A/California/07/2009(H1N1))
[8] = target: T4, Histone-lysine N-methyltransferase NSD2 (Homo sapiens, UniProt O96028); format: biochemical
T4 sequence (O96028 whole entry): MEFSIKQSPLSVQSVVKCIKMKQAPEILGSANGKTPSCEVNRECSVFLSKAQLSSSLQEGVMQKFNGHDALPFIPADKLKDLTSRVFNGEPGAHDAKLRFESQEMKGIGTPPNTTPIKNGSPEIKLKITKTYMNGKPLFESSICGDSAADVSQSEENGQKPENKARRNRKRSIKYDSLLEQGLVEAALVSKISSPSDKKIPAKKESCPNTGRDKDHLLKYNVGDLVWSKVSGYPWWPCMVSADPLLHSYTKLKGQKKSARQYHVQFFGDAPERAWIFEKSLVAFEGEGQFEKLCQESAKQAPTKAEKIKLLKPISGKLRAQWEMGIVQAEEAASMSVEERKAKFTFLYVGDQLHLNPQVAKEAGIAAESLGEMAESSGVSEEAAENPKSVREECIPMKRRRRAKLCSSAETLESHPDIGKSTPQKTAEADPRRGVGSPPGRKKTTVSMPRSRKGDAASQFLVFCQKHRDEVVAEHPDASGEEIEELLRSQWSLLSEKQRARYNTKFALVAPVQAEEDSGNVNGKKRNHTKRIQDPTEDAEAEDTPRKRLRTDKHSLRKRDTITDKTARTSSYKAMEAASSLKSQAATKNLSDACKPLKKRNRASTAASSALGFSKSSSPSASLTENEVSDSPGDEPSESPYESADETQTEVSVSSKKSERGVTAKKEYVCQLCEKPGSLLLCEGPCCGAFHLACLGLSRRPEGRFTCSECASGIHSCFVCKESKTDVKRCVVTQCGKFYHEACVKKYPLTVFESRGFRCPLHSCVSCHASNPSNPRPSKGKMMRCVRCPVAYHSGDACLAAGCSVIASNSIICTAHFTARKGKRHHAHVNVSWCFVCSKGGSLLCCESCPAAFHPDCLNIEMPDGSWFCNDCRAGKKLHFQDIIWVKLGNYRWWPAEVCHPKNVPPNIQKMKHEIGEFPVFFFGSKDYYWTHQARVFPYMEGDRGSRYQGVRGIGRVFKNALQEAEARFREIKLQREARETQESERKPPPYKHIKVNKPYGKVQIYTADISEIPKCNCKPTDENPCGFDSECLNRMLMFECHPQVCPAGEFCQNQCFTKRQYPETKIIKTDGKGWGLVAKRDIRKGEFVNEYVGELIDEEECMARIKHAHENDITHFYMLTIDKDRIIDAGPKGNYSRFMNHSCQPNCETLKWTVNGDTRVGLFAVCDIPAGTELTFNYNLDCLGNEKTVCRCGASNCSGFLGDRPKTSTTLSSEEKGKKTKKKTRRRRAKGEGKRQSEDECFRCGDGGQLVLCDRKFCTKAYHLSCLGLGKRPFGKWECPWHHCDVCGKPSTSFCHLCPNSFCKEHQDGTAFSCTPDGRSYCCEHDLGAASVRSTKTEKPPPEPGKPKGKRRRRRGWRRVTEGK

[9] = target: T5, Aryl hydrocarbon receptor (Homo sapiens, UniProt P35869); experiment: Luminescence-based cell-based high throughput dose response assay for activators of the Aryl Hydrocarbon Receptor (AHR). [Related pubchem assays: 2796 (Primary screen (AHR activators in singlicate)), 2845 (Confirmation screen (AHR activators in triplicate)), 434939 (Counterscreen (PXR activators in triplicate)), 2804 (Summary (AHR activators))]; format: ADME
T5 sequence (P35869 whole entry): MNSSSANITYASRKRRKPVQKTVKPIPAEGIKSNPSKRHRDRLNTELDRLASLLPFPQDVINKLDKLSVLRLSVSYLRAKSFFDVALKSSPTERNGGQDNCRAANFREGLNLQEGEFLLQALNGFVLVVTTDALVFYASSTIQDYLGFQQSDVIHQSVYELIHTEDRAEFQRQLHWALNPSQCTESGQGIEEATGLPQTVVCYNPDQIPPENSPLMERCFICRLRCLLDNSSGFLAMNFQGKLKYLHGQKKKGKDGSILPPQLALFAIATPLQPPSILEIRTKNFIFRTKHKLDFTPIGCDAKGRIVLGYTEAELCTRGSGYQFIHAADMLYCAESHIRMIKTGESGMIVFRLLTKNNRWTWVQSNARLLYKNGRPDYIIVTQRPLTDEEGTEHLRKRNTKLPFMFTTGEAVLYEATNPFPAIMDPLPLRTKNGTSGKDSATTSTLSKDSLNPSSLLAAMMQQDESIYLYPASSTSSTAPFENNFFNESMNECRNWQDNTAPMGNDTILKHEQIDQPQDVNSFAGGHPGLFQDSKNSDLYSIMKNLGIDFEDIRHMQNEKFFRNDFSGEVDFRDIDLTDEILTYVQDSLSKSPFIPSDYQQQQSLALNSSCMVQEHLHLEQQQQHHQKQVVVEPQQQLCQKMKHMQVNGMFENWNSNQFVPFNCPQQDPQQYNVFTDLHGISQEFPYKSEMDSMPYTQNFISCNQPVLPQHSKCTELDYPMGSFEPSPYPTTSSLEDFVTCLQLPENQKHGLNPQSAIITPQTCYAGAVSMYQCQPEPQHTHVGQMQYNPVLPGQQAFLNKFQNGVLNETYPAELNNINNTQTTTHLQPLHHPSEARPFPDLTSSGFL

[10] = HEK293T cytotoxicity, dose response, cytotoxicity control for miR-122 modulator project, cell-based, inhibitor set, cherry-pick, set 2 (AID 720697); format: functional
[11] = target: T6, Corticotropin-releasing factor receptor 2/Corticotropin-releasing factor-binding protein (Homo sapiens, UniProt P24387+Q13324); experiment: activators of CRF receptor 2 with binding protein – uHTS hits, confirmation (AID 602473); format: functional; settings: read-out: EC50_Mean
T6 sequence (Q13324 whole entry): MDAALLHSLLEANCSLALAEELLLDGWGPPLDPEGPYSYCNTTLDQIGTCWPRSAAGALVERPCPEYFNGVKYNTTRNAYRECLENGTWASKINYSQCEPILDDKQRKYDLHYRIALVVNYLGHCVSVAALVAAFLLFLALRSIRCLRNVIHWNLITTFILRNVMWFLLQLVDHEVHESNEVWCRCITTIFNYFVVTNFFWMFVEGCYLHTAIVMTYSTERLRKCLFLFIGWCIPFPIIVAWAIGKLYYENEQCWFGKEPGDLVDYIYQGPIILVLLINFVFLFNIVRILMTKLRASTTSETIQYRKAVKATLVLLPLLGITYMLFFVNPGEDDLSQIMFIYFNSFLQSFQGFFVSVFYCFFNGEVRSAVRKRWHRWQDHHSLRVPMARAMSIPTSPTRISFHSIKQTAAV
T6 sequence (P24387 whole entry): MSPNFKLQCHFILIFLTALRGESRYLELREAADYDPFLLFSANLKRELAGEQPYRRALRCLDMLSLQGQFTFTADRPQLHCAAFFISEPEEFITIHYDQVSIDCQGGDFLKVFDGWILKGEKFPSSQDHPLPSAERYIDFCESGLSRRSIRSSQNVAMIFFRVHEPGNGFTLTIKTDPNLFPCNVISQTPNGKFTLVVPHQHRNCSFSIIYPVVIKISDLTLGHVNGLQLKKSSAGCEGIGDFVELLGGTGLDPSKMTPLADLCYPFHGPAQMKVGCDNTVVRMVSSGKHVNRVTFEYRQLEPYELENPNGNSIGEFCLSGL

Endoplasmic reticulum aminopeptidase 1, sequence (Q9NZ08 whole entry): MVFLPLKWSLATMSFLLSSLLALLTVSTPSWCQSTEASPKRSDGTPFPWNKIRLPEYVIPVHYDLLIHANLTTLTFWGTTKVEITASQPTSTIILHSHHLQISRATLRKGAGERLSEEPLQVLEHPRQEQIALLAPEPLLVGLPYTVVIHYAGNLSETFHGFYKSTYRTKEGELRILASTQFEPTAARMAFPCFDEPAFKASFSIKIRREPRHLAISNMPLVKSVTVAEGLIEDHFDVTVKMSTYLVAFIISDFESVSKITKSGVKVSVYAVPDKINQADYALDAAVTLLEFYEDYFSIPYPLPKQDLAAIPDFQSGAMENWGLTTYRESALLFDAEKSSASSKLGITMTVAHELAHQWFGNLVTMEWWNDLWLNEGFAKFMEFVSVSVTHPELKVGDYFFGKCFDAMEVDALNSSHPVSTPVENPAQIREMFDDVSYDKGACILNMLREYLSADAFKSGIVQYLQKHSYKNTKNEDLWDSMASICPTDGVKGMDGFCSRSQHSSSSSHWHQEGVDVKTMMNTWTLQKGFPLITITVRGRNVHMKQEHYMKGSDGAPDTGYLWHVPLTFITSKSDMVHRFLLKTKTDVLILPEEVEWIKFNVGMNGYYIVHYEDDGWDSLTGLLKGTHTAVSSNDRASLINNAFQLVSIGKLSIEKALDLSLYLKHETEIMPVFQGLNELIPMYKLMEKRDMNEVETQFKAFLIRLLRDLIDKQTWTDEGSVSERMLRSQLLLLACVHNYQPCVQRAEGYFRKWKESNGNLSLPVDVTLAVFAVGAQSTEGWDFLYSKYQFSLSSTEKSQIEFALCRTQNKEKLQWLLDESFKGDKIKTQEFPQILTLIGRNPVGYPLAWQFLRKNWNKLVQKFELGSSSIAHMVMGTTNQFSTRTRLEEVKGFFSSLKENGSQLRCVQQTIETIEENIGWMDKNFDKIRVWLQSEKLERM
Beta-galactosidase, sequence (Q8VNN2 whole entry): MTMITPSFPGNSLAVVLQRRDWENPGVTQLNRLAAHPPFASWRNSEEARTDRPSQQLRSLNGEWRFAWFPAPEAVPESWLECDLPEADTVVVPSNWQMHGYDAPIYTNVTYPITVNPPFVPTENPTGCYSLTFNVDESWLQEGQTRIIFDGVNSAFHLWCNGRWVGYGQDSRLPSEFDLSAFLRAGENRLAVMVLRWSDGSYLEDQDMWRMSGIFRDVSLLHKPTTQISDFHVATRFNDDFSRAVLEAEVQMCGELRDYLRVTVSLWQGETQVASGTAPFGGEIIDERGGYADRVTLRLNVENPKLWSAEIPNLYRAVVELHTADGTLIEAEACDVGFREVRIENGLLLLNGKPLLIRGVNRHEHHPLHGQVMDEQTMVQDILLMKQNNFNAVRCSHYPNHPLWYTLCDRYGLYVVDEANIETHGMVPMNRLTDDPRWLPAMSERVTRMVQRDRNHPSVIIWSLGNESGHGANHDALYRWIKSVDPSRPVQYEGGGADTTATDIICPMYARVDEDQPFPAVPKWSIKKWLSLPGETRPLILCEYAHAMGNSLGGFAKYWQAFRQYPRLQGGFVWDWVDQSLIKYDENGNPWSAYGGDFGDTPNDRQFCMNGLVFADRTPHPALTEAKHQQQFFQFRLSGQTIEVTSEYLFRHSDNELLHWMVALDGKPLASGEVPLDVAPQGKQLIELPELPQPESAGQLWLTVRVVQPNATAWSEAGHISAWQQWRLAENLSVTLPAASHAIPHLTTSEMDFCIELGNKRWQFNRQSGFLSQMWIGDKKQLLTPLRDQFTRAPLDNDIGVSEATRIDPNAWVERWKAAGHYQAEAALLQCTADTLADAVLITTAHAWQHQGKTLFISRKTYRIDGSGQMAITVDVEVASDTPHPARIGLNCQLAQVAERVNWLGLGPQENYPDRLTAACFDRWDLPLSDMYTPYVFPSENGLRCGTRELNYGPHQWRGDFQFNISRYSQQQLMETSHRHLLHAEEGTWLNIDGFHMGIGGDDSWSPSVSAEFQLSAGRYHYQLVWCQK
Mitogen-activated protein kinase 10, sequence (P53779 whole entry): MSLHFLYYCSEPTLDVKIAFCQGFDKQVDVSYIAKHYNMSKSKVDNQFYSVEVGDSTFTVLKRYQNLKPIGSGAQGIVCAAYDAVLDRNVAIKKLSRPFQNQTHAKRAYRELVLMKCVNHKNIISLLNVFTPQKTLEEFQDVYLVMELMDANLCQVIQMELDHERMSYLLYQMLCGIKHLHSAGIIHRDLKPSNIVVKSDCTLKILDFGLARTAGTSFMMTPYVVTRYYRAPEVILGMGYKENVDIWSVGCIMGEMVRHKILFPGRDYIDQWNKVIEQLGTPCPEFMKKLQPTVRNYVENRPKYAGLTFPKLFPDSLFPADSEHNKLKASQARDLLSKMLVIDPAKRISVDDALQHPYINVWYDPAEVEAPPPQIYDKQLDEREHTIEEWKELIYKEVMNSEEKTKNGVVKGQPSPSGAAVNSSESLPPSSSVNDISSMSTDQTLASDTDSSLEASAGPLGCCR
T2 sequence (Q92731 whole entry): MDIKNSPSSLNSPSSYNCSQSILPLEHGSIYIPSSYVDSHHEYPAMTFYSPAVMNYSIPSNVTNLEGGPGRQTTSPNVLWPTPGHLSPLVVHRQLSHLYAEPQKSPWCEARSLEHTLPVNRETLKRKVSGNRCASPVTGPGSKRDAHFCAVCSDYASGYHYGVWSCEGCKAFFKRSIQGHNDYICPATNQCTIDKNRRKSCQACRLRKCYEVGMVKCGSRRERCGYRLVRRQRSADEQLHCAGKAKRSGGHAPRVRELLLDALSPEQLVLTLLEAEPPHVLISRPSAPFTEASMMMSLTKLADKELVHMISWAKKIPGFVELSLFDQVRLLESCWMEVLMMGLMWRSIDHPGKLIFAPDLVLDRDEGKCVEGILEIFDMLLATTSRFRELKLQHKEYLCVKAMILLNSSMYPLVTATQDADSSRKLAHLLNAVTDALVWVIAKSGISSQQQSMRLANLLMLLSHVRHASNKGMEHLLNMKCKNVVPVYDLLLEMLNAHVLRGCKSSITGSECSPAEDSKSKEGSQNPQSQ
Nonstructural protein 1, sequence (Q194T2 whole entry): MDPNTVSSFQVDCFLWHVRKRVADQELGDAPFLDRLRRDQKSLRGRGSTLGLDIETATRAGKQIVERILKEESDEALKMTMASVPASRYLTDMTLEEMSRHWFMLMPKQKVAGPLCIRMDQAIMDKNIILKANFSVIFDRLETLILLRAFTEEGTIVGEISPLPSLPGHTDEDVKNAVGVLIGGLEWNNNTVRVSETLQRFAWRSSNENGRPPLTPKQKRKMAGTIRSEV

O=C(NCc1nc2ncc(Br)cc2[nH]1)c1ccccc1
IC50 [1]: 38.3 µM (not active)

COCC(=O)Nc1sc2c(c1C(=O)OC)C(C(=O)OC)CC2 (centres undefined)
IC50 [2]: > 100 µM (active)

FC(F)(F)c1ccc(Oc2ccc3cc(Br)ccc3c2)nc1
IC50 (Beta-galactosidase): > 80 µM (inactive)

Cc1ccnc(NC(=O)C2CCCN(S(=O)(=O)c3c[nH]cn3)C2)c1 (centres undefined)
IC50 (Prothrombin): > 50 µM (not active)

Cc1ccc(Cl)cc1N1CCN(C(=O)c2cc3c(O)nc4ccccc4c3n2C)CC1
IC50 (Beta-galactosidase): > 80 µM (inactive)

Cc1cc(C)c2cc(C(=O)N3CCC(C(=O)c4ccc(F)cc4)CC3)[nH]c2c1
IC50 (Beta-galactosidase): > 80 µM (inactive)

CCN1[C@H](C(=O)Nc2nccs2)[C@@H](CO)[C@@H]2Cn3c(ccc(/C=C/c4ccccc4)c3=O)[C@@H]21
AC50 [3]: 19 µM (active)

O=C(c1ccc(N2CCCCC2)c([N+](=O)[O-])c1)N(c1ccccn1)c1ccccn1
IC50 (Prothrombin): > 50 µM (not active)

CCOC(=O)c1c(NS(=O)(=O)c2ccc(Br)cc2)sc2c1CCC2
EC50 (Streptokinase A): > 150 µM (not active)
EC50 [4]: 2.1 µM (active)
EC50 (Streptococcus): 4.07 µM (active)
IC50 (Estrogen receptor beta [5]): > 50 µM (not active)
IC50 (Estrogen receptor beta [6]): > 50 µM (not active)
AC50 [7]: > 100 µM (inactive)

O=[N+]([O-])c1ccccc1/C=C\C=N\N1CCN(c2ccccc2)CC1
IC50 (Nonstructural protein 1): 59.2 µM (active)
AC50 [8]: > 20 µM (inactive)

O=C(CN1C(=O)CSC1=O)Nc1ccccc1N1CCOCC1
IC50 [2]: > 100 µM (active)

Cn1c(C(=O)N2CCC(C(N)=O)CC2)cc2cc(Cl)ccc21
EC50 [9]: 0.91 µM (active)

COc1cccc(CNC(=O)[C@H]2N[C@H]3c4ccc(/C=C/c5ccccc5)c(=O)n4C[C@H]3[C@@H]2CO)c1
AC50 [3]: 16.2 µM (active)

Cc1ccc2oc(=O)c3cnn(CC(=O)N4CCN(c5ccccn5)CC4)c3c2c1
IC50 [1]: > 93.1 µM (not active)

C[C@@H]1CN([C@@H](C)CO)S(=O)(=O)c2ccc(C3=CCCCC3)cc2O[C@@H]1CN(C)C(=O)Nc1ccc2c(c1)OCO2
AC50 [10]: 0.502 µM (active)

O=C(Nc1ccccc1N1CCOCC1)c1ccc2[nH]cnc2c1
IC50 (Prothrombin): 6.87 µM (active)

O=c1oc2c(CN3CCN(CCO)CC3)c(O)ccc2cc1-c1ccccn1
AC50 [3]: 1.46 µM (active)
EC50 [11]: 6.05 µM (active)
